According to patent publication US11648242B2, “Pharmaceutical composition comprising pimavanserin, process of preparation and use thereof” (Aurobindo Pharma Ltd., priority 2019, dated 2023):
Structures can show the parent of a compound that is named as a salt.

What was measured:
[1] = cited from earlier work
Bulk density of the API = format: physicochemical; settings: native amorphous pimavanserin tartrate API
[2] = Particle size distribution (D90) of the API; format: physicochemical; settings: native amorphous pimavanserin tartrate API

Bulk density (Bulk density of the API) [g/mL] | Particle size distribution of API (D90) [2] | SMILES | Solubility in water [1]
– | – | CC(C)COc1ccc(CNC(=O)N(Cc2ccc(F)cc2)C2CCN(C)CC2)cc1 [Pimavanserin tartrate, urea, N-[(4-fluorophenyl)methyl]-N-(1-methyl-4-piperidinyl)-N′-[[4-(2methylpropoxy)phenyl]methyl]-, (2R, 3R)-2,3-dihydroxybutanedioate (2:1)] | freely soluble
0.374 | about 100 μm | CC(C)COc1ccc(CNC(=O)N(Cc2ccc(F)cc2)C2CCN(C)CC2)cc1 [native amorphous pimavanserin tartrate] | –
